The numbers were not newly measured in patent US20110189166A1, “METHODS OF TREATING HEMORHEOLOGIC ABNORMALITIES IN MAMMALS” (priority 2010, published 2011), which cites them from elsewhere.

For data set [1], the system named is crenated or spiculated red blood cells (echinocytes). Particulars: horses, after exercise; U.S. Pat. No. 4,383,997.
The subject of a further data set is cows. Particulars: inorganic phosphate for 2-5 days.
The next data set has as its system red blood cell. The note with it: in vitro.
In another data set the test system is flippase. Particulars: independent of excess intracellular calcium.
Another data set relates to human erythrocytes. The note with it: red blood cells exposed to LPA.
The subject of data set [2] is aminophospholipid translocase (flippase). The note with it: by complexing a sulfhydryl group.

In the case of `CC(=O)CCCCn1c(=O)c2c(ncn2C)n(C)c1=O` [pentoxyfylline], the “increase of crenated red blood cells following exercise” value in data set [1] is on record as “inhibit the increase of crenated red blood cells following exercise”.
For `O=P(O)(O)O` [inorganic phosphate], in the data set with cows, the hemolysis after treatment entry is recorded as “absence of hemolysis” and the “time to complete recovery” value was 14 to 21 days.
On to `CCCC(=O)Nc1ncnc2c1ncn2[C@@H]1O[C@@H]2COP(=O)(O)O[C@H]2[C@H]1OC(=O)CCC` [dibutyryl-cAMP], for which, in the data set on red blood cell, the PS exposure entry is on record as “prevents PS exposure”, the intracellular calcium entry result was “inhibits intracellular calcium entry” and the “reduction of red blood cell aggregation” value was “about 50%”.
Consider Lysophosphatidic acid [LPA], for which, in the data set with flippase, the flippase inhibition result is reported as “inhibit flippase directly”. In the data set with human erythrocytes, the “PS exposure on red blood cells” value is “resulted in PS exposure”, the “adherence to endothelial cells” value is listed as “increased adherence to endothelial cells” and the thrombin generation entry is “potentiated thrombin generation”.
On to `CCN1C(=O)C=CC1=O` [NEM, N-ethylmaleimide], for which, in data set [2], the “activity of aminophospholipid translocase (flippase)” value was “blocks the activity of aminophospholipid translocase (flippase)”.
